Source: publication PMC13316043, “Structural basis of NSD2 degradation via targeted recruitment of SCF-FBXO22” (Nature Communications, 2026)
Each block holds one molecule with its values, some of them ahead of it.

What was measured:
[1] = test system: NSD2 and other known FBXO22 substrates; details: prior work; cited from earlier work
[2] = biological target: T1, *NSD2 PWWP1 ubiquitination by SCF^FBXO22 (Homo sapiens, UniProt O96028+Q8NEZ5); assay: Ubiquitination assay using purified components; format: biochemical; details: compound at 0.5 µM, fluorescent SDS-PAGE
T1 construct: fluorescently labeled NSD2-PWWP1 (*NSD2-PWWP1); the FIST domain of FBXO22 rather than full-length FBXO22 that is used in the ubiquitination; 6xHis (N, cleaved yes); GST (cleaved yes); made in house; host or cells: SKP1-FBXO22: Trichoplusia ni insect cells; NSD2 PWWP1 and NEDD8: E. coli BL21(DE3)-CodonPlus RIL
Method: Ubiquitination assays were performed by mixing 2 separate solutions. First, SKP1-FBXO22, fluorescently labeled NSD2-PWWP1 (*NSD2-PWWP1), and compounds, unless otherwise indicated, were pre-incubated for 15 min on ice. Second, UBA1, UBE2R2, UBE2D2 or UBE2L3 and ARIH1, NEDD8 ~ CUL1-RBX1, MgATP, and reaction buffer (20 mM HEPES pH 8, 200 mM NaCl, 0.5 mg/mL bovine serum albumin (BSA)) were combined on ice to generate a master mix. A standard volume of master mix was added to each reaction tube, and Ub was added to initiate the ubiquitination reaction containing 100µM Ub, 1µM SKP1-FBXO22, 0.5µM *NSD2 PWWP1, 0.5µM compound, 0.1µM UBA1, 1µM UBE2R2, 1µM UBE2D2 or 1µM UBE2L3, and 1µM ARIH1, 1µM NEDD8~CUL1-RBX1, and 5mM MgATP in reaction buffer. Ubiquitination assays comparing *NSD2 PWWP1 mutants were performed similarly, except that SKP1-FBXO22, *NSD2 PWWP1 mutants, and compounds were not incubated separately prior to the start of the reaction. The reactions proceeded at room temperature for 15 min until they were quenched by adding SDS Loading Buffer. The ubiquitinated *NSD2 PWWP1 was visualized by subjecting the reactions to SDS-PAGE and imaging using the Amersham Typhoon.

[3] = biological target: T2, NSD2 (long and short forms) (Homo sapiens, UniProt O96028); assay: Western blot of NSD2 in HEK293T cells; format: cell-based; details: 10 µM, 6 hrs, vs DMSO
T2 sequence (O96028 211-350 limits assumed): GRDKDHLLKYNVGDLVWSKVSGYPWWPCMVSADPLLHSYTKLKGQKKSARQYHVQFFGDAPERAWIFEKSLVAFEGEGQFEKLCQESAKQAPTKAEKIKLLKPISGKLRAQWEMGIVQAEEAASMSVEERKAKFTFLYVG
Method: (§1) HEK293T and U2OS were obtained from ATCC and cultured in high-glucose-containing Dulbecco’s Modified Eagle’s Medium (DMEM; Gibco; cat. #11995) supplemented with 10% fetal bovine serum (VWR) and 1% penicillin/streptomycin (Gibco). Cells were treated with either UNC10415667, UNC12149, UNC12567, hemin (Sigma; cat. #H9039), or DMSO control for the indicated times and analyzed by western blot using standard procedures. Briefly, cells were lysed on ice for 15 min in NETN lysis buffer (20 mM Tris pH 8.0, 100 mM NaCl, 0.5 mM EDTA, 0.5% NP40) supplemented with 10 µg/mL aprotinin, 10 µg/mL leupeptin, 10 µg/mL pepstatin A, 1 mM sodium orthovanadate, 1 mM sodium fluoride, and 1 mM AEBSF (4-[two aminoethyl] benzenesulfonyl fluoride). Cell lysates were centrifuged at 20,000×g in a benchtop microcentrifuge at 4 °C for 10 min. Protein concentration was determined by Bradford assay (Bio-Rad; cat. #5000006). Protein concentration was normalized using Laemmli buffer. Samples were heated for 5 min at 95°C in a dry water-bath. Samples were separated on TGX stain free gels (Bio-Rad) transferred to nitrocellulose membrane and blocked in 5% non-fat dry milk (Biorad; cat. #1706404) diluted in 1x TBS-T (137 mM NaCl, 2.7 mM KCl, 25 mM Tris pH 7.6, 1% Tween-20). Primary antibody incubations (Anti-NSD2 (Abcam; Cat# ab75359; Lot# 1093214-1; 1:1000 dilution), Anti-BACH1 (Fortis Life Sciences; Cat# A303-805A; Lot# 1; 1:1000 dilution), and Anti-GAPDH (Santa Cruz Biotechnology; Cat# sc-47724; Lot# C1023; 1:1000 dilution)) were performed overnight at 4 °C. Secondary antibodies (Peroxidase AffiniPure Goat Anti-Rabbit IgG (H + L) (Jackson Immuno; Cat# 111-035-003; 1:5000 dilution) and Peroxidase AffiniPure Goat Anti-Mouse IgG (H + L) (Jackson Immuno; Cat# 115-035-003; 1:5000 dilution)) were incubated for 1 h at room temperature. Blots were developed by chemiluminescence using Pierce ECL (Thermo Fisher Scientific; cat. #32106).

BACH1 = assay: Western blot of BACH1 in HEK293T cells; format: cell-based, human
Method: as §1

[4] = test system: FBXO22-NSD2 PWWP1 ternary complex; assay: Size-exclusion chromatography to monitor ternary complex formation; format: binding, human
Method: Formation of the SCF^FBXO22-UNC10088-NSD2 PWWP1 and SCF^FBXO22-UNC10415667-NSD2 PWWP1 ternary complexes was performed by incubating SKP1-FBXO22, CUL1-RBX1, NSD2 PWWP1, and UNC10088 or UNC10415667 at a 1:1:1:1 molar ratio for 4 h on ice. The SCF^FBXO22-UNC10088-NSD2 PWWP1-BACH1 BTB ternary complex was formed by incubating SKP1-FBXO22, CUL1-RBX1, NSD2 PWWP1, UNC10088, and BACH1 BTB at a 1:1:1:1:1.5 molar ratio for 1 h on ice. The incubated sample was loaded onto a Superdex 200 Increase SD200 column (Cytiva), equilibrated with 20 mM HEPES pH 8, 200 mM NaCl, 1 mM DTT, for size-exclusion chromatography, and fractions containing all subunits of the SCF^FBXO22-Degrader-NSD2 PWWP1 complex were pooled and concentrated. The SCF^FBXO22-UNC10088-NSD2 PWWP1, SCF^FBXO22-UNC10415667-NSD2 PWWP1, and SCF^FBXO22-UNC10088-NSD2 PWWP1-BACH1 BTB complexes were concentrated to 33 µM, 10.9 µM, and 4.1 µM, respectively, and flash frozen. […] In contrast, only the PWWP1 and BTB domains of NSD2 and BACH1, respectively, were used.
FBXO22 WT and variants were incubated on ice with NSD2 PWWP1 and either UNC10088 or UNC10415667 at 5 µM. After 1 h, the samples were centrifuged at 16,060 x g for 10 min at 4 °C. Each sample was examined for C326- and compound-dependent complex formation by comparing the SEC chromatograms and Coomassie-stained SDS-PAGE gels. […] These experiments were performed using a Superdex 200 Increase SD200 column (Cytiva) and 20 mM HEPES pH 8, 200 mM NaCl, 1 mM DTT.

[5] = biological target: T3, NSD2 (U2OS NSD2-HiBiT cells) (Homo sapiens, UniProt O96028); assay: NSD2 HiBiT degradation assay; format: cell-based; details: U2OS NSD2-HiBit cells, 1 µM, 6 h
T3 construct: RNPs were introduced into U2OS cells by electroporation; endogenous in cells; host or cells: U2OS NSD2-HiBiT clone P112 (CRISPR knock-in)
T3 sequence (O96028 1-1365): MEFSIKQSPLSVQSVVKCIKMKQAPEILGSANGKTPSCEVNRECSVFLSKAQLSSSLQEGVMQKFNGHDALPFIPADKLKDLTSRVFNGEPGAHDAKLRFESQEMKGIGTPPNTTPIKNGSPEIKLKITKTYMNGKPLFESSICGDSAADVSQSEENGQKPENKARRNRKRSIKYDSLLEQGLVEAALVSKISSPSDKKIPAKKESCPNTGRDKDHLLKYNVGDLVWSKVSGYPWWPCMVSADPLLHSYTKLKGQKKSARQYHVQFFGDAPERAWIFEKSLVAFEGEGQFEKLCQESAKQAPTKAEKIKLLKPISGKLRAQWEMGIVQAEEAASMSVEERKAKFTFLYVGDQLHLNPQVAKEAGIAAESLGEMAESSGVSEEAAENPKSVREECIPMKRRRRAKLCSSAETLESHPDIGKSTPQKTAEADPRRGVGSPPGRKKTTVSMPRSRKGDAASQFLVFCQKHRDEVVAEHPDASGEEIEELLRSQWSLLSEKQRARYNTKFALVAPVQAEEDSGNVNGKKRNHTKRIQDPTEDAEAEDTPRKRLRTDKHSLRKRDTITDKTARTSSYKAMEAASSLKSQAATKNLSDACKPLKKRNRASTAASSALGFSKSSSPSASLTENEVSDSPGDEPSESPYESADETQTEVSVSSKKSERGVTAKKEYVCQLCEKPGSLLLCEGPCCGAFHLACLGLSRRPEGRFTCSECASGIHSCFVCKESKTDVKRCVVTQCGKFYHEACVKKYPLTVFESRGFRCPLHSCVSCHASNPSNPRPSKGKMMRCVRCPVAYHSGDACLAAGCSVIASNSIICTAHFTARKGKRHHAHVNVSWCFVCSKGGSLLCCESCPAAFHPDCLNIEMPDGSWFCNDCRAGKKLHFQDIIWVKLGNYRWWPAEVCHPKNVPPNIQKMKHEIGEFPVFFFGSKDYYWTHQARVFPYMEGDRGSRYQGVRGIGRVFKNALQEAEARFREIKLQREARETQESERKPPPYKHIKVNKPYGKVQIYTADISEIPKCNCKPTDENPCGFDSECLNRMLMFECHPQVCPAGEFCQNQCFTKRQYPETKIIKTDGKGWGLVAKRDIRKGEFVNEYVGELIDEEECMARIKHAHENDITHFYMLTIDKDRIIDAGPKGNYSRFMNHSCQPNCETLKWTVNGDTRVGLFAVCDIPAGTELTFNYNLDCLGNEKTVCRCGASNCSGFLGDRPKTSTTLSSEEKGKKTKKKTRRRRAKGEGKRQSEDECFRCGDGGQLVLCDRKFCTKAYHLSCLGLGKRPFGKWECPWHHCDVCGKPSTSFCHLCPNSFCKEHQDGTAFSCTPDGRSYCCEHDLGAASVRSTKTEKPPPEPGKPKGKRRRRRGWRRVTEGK
From the text: The NSD2 genomic sequence was obtained from the UCSC genome browser and used to design sgRNAs to introduce HiBiT tags at either the 5’ or 3’ ends of the gene. sgRNA were assembled into RNPs using TrueCut Cas9 Protein v2 (Invitrogen, Cat#A36497), an sgRNA crRNA:tracrRNA duplex (below; IDT) and ssODN (below; IDT). RNPs were introduced into U2OS cells by electroporation using a Neon XT electroporation system (1750 V, 10 ms, 3 pulses) in R-buffer, using Thermo Fisher Neon transfection kit (Cat# MPK1025K) and according to the manufacturer's protocol. After plating for recovery for four days, single cell clones limited dilution cloning. Single cell clones that grew out were identified as containing integrated HiBiT tags on NSD2 by performing HiBiT assays using HiBiT lytic assay (Promega: N3040) and read on a plate reader. Clones were further confirmed by PCR analysis.
To test compounds for NSD2 degradation, a compound plate was prepared by diluting compounds in DMSO into cell media in a 384-deep-well plate (Revvity). Then, 6 µL of the diluted compounds were transferred into the well of the 384-well assay plate (Corning). 24 µL of the NSD2 HiBiT U2OS P112 cells or parental U2OS cells (3000 cells/well) were added to each well to make a final volume of 30 µL with a 0.1% final DMSO concentration. For multiple time points, multiple assay plates were made and incubated in the incubator at 37 °C in 5% CO2 for 3/6/12/24/48 hrs. 10 min before the reading, the assay plate and the Nano-Glo HiBiT Lytic Detection System (Promega) were brought to room temperature. The HiBiT lytic reagent master mix was prepared according to the product instructions and added to the assay plate. The plate was then incubated on an orbital shaker for 5 min at room temperature, equilibrated for 10 min, and then read using the GloMax luminometer (Promega) for luminescence detection. Compound treatment was normalized to the DMSO control with the background subtraction using the parental U2OS cell line as the background control, plated alongside the HiBiT U2OS P112 cells. The data and graphs were then analyzed and generated using GraphPad Prism (v 10.4.1). DC50 and Dmax were calculated by fitting the data to a non-linear regression curve.

T1 sequence (Q8NEZ5 whole entry, one chain of several, the tested form may be a part): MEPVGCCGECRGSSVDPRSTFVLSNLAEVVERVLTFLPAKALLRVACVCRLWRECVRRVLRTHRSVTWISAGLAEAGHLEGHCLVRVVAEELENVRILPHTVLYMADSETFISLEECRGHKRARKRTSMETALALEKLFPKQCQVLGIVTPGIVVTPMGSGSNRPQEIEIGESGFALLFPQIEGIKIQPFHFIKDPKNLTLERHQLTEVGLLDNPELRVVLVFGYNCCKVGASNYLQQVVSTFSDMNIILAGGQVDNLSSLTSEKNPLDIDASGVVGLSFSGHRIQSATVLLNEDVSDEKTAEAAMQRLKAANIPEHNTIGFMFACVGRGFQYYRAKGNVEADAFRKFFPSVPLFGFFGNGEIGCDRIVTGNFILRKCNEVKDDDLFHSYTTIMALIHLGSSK

SCF^FBXO22-dependent ubiquitination of *NSD2 PWWP1 [2]: no effect
Molecule: NCCCCCC(=O)N1CCc2cc(NC(=O)c3ccc(CN(C(=O)c4ccc5c(c4)OCC(=O)N5)C4CC4)cc3)ccc2C1 [UNC8732]
selectivity of degradation in global proteomics [1]: specifically degrades NSD2

NSD2 levels by immunoblot [3]: unchanged
Molecule: CC(C)N(Cc1ccc(C(=O)Nc2ccc3c(c2)CCN(C(=O)c2ccc(C=O)cc2)C3)cc1)C(=O)c1ccc2c(c1)OCC(=O)N2 [UNC12567]
BACH1 levels by immunoblot (BACH1; 10 µM, 6 hrs): unchanged
ternary complex formation between FBXO22 and NSD2 PWWP1 by SEC [4]: did not support ternary complex formation

Molecule: O=Cc1ccc(CC(=O)N2CCc3cc(NC(=O)c4ccc(CN(C(=O)c5ccc6c(c5)OCC(=O)N6)C5CC5)cc4)ccc3C2)cc1 [UNC10415668]
reduction of NSD2 levels [5]: more modest effect
SCF^FBXO22-dependent ubiquitination of *NSD2 PWWP1 [2]: able to induce polyubiquitination

Molecule: Hemin [reference compound]
BACH1 degradation by immunoblot (BACH1; 20 µM Hemin): degradation was promoted
